One compound from patent US20260027100A1, “THERAPEUTIC TYROSINE KINASE INHIBITORS FOR MYELIN OLIGODENDROCYTE GLYCOPROTEIN ANTIBODY DISEASE (MOGAD)” (Principia Biopharma Inc., priority 2022, published 2026) can be followed below.

Common to all, as to format: in vivo, human
The nature of series [1]: Phase 2b dose-finding trial (DRI15928): PK data and effect of fed status on tolebrutinib exposure. The note with it: effect of fed status on exposure; Phase 2b trial in relapsing multiple sclerosis. As for the experimental part:
(§1) The choice of the dose of 60 mg of the BTK inhibitor taken with food is based on the results of a Phase 2b dose-finding trial for tolebrutinib in participants with relapsing multiple sclerosis (DRI15928). See for example, Reich, D. S., et al., Safety and efficacy of tolebrutinib, an oral brain-penetrant BTK inhibitor, in relapsing multiple sclerosis: a phase 2b, randomised, double-blind, placebo-controlled trial. Lancet Neurol, 2021. 20(9): p. 729-738.
(§2) The choice of the dose of 60 mg tolebrutinib taken with food is based on the results of the Phase 2b dose-finding trial for tolebrutinib in adult participants with relapsing multiple sclerosis (DRI15928).

For series [2], the system named is participants with relapsing multiple sclerosis. The experiment in a line: Phase 2b dose-finding trial (DRI15928): treatment response versus exposure, new gadolinium-enhancing T1-hyperintense lesions. Conditions: after 12 weeks of treatment. As for the experimental part:
as §1, §2

Series [3] has the same test system. The experiment in a line: Phase 2b dose-finding trial (DRI15928): safety (TEAEs, AESIs, PCSAs). Conditions: Phase 2b trial. As for the experimental part:
as §1
There were low numbers of AESIs and PCSAs observed.
as §2

A short description of series [4]: Ongoing tolebrutinib Phase 3 trials: hepatic safety. The note with it: ongoing Phase 3 trials. The source says: Thus, there is a need to mitigate the risk of hepatic injury and provide safe treatment for patients with MOGAD.

As for `C=CC(=O)N1CCC[C@@H](n2c(=O)n(-c3ccc(Oc4ccccc4)cc3)c3c(N)nccc32)C1` [tolebrutinib, (R)-1-(1-acryloylpiperidin-3-yl)-4-amino-3-(4-phenoxyphenyl)-1H-imidazo[4,5-c]pyridin-2(3H)-one], the “increase in AUC0-24 (positive food effect)” value in series [1] is “approximately 2 fold”. The “correlation between treatment response and exposure (new gadolinium-enhancing T1-hyperintense lesions)” value in series [2] is listed as “higher exposure was associated with low numbers of new gadolinium-enhancing T1-hyperintense lesions”. In addition, the “numbers of AESIs and PCSAs observed” value in series [3] is reported as “low numbers”. Also, the new risks identified entry in series [3] (overall) is “no new risks were identified”. Besides, in series [3] (tolebrutinib treatment arms), the “correlation between dose administered and number of TEAEs” value is on record as “no correlation”; the “most common events (preferred terms)” value is “headache, upper respiratory tract infection, and nasopharyngitis”. Moreover, in series [4], the drug-induced liver injury result is “Drug-induced liver injury has been identified” and the “time of occurrence of reported liver injury events after start of administration” value was 2 to 3 months. Moreover, the “course of liver enzyme elevation after discontinuation” value in series [4] (after tolebrutinib discontinuation) is recorded as “appears reversible”.
